From the supplement of paper PMC11061612

Columns and labels:
Experiment in all cases: combination Emax (second highest fraction inhibited in the dose matrix, 72 h); higher = more inhibition; extreme values may be limits of the assay
[1] = test system: CAL-85-1 (Breast Carcinoma)
In short: (§1)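 After 24 hours at 37°C and 5% CO2 in 1536-well plates, cells in DMEM/F12 or RPMI plus 10% FBS received two-drug dose matrices for 72 hours. Viability came from CellTiter-Glo 2.0 luminescence and was scaled as inhibition, anchored at 0 by vehicle wells and at 1 by blank wells. Combination Emax is taken as the second-highest inhibition in the matrix, and Bliss excess as the observed combination effect less EA + EB − EA·EB, with EA and EB the single-agent effects.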

[2] = test system: KNS-62 (Squamous Cell Lung Carcinoma)
In short: as §1

[3] = test system: L-363 (Plasma Cell Myeloma)
In short: as §1

[4] = test system: NCI-H2023 (Non-Small Cell Lung Carcinoma)
In short: as §1

NCI-H2452 (Mesothelioma) = test system: NCI-H2452 (Mesothelioma)
In short: as §1

[5] = test system: NCI-H835 (Other Solid Carcinomas)
In short: as §1

[6] = test system: NTERA-2-cl-D1 (Other Solid Carcinomas)
In short: as §1

[7] = test system: OVKATE (Ovarian Carcinoma)
In short: as §1

SK-MEL-24 (Melanoma) = test system: SK-MEL-24 (Melanoma)
In short: as §1

DK-MG (Glioblastoma) = test system: DK-MG (Glioblastoma)
In short: as §1

[8] = test system: Daudi (Burkitt's Lymphoma)
In short: as §1

[9] = test system: IGROV-1 (Ovarian Carcinoma)
In short: as §1

[10] = test system: JJN-3 (Plasma Cell Myeloma)
In short: as §1

[11] = test system: JURL-MK1 (Chronic Myelogenous Leukemia)
In short: as §1

[12] = test system: NCI-H1944 (Lung Adenocarcinoma)
In short: as §1

[13] = test system: RS4-11 (B-Lymphoblastic Leukemia)
In short: as §1

[14] = test system: SCC90 (Head and Neck Carcinoma)
In short: as §1

SK-N-DZ (Neuroblastoma) = test system: SK-N-DZ (Neuroblastoma)
In short: as §1

[15] = test system: TK (B-Cell Non-Hodgkin's Lymphoma)
In short: as §1

[16] = test system: TOV-21G (Ovarian Carcinoma)
In short: as §1

Row | Compound | combination Emax [1] | combination Emax [2] | combination Emax [3] | combination Emax [4] | combination Emax (NCI-H2452 (Mesothelioma)) | combination Emax [5] | combination Emax [6] | combination Emax [7] | combination Emax (SK-MEL-24 (Melanoma)) | combination Emax (DK-MG (Glioblastoma)) | combination Emax [8] | combination Emax [9] | combination Emax [10] | combination Emax [11] | combination Emax [12] | combination Emax [13] | combination Emax [14] | combination Emax (SK-N-DZ (Neuroblastoma)) | combination Emax [15] | combination Emax [16]
1 | Cc1nc(-c2cn3c(n2)-c2ccc(-c4cnn(C(C)(C)C(N)=O)c4)cc2OCC3)n(C(C)C)n1 [Taselisib] + O=C(Nc1ccc2[nH]nc(-c3ccncc3)c2c1)[C@@H]1CCN(CC(=O)N2CCN(c3ccc(-c4ncccn4)cc3)CC2)C1 [SCH772984] (first compound max 10 µM, 7x7, partner max 5 µM) | 0.935 | 0.787 | 0.63 | 0.665 | 0.534 | 0.71 | 0.64 | 0.423 | 0.93 |  |  |  |  |  |  |  |  |  |  | 
2 | CN(CCO)CC[C@H](CSc1ccccc1)Nc1ccc(S(=O)(=O)NC(=O)c2ccc(N3CCC([C@@H](O)c4ccccc4-c4ccc(Cl)cc4)CC3)cc2)cc1S(=O)(=O)C(F)(F)F [AZD4320] + CS(=O)(=O)CCNCc1ccc(-c2ccc3ncnc(Nc4ccc(OCc5cccc(F)c5)c(Cl)c4)c3c2)o1 [Lapatinib] (first compound max 1 µM, 7x7, partner max 10 µM) | 0.957 | 0.291 | 0.154 | 0.301 | 0.581 | 0.982 | 0.965 | 0.677 | 0.942 |  |  |  |  |  |  |  |  |  |  | 
3 | CS(=O)(=O)CCNCc1ccc(-c2ccc3ncnc(Nc4ccc(OCc5cccc(F)c5)c(Cl)c4)c3c2)o1 [Lapatinib] + Cn1cnc2c(F)c(Nc3ccc(Br)cc3Cl)c(C(=O)NOCCO)cc21 [Selumetinib] (first compound max 10 µM, 7x7, partner max 10 µM) | 0.85 | 0.626 | 0.104 | 0.297 | 0.466 | 0.257 | 0.339 | 0.31 | 0.853 |  |  |  |  |  |  |  |  |  |  | 
4 | Cc1c2c(nn1C)CSCc1cc(n(C)n1)CSc1cc(c3ccccc3c1)OCCCc1c(C(=O)O)n(C)c3c-2c(Cl)ccc13 [AZD5991] + CS(=O)(=O)CCNCc1ccc(-c2ccc3ncnc(Nc4ccc(OCc5cccc(F)c5)c(Cl)c4)c3c2)o1 [Lapatinib] (first compound max 1 µM, 7x7, partner max 10 µM) | 0.825 | 0.213 | 0.993 | 0.284 | 0.414 | 0.332 | 0.487 | 0.307 | 0.806 |  |  |  |  |  |  |  |  |  |  | 
5 | C=CCn1c(=O)c2cnc(Nc3ccc(N4CCN(C)CC4)cc3)nc2n1-c1cccc(C(C)(C)O)n1 [AZD1775] + CCc1c2c(nc3ccc(O)cc13)-c1cc3c(c(=O)n1C2)COC(=O)[C@]3(O)CC [SN-38] (first compound max 1 µM, partner max 0.3 µM) | 0.799 | 0.836 | 0.903 | 0.775 | 0.675 | 0.668 | 0.682 | 0.336 | 0.806 |  |  |  |  |  |  |  |  |  |  | 
6 | Cc1c2c(nn1C)CSCc1cc(n(C)n1)CSc1cc(c3ccccc3c1)OCCCc1c(C(=O)O)n(C)c3c-2c(Cl)ccc13 [AZD5991] + C[C@@H](Nc1cc(F)cc(F)c1)c1cc(C(=O)N(C)C)cc2c(=O)cc(N3CCOCC3)oc12 [AZD8186] (first compound max 1 µM, 7x7, partner max 3 µM) | 0.243 | 0.17 | 1 | 0.377 | 0.357 |  | 0.682 | 0.353 | 0.388 | 0.849 | 0.427 | 0.8 | 1 | 0.629 | 0.282 | 0.591 | 0.903 | 0.232 | 0.112 | 0.253
7 | CC1(C)CCC(CN2CCN(c3ccc(C(=O)NS(=O)(=O)c4ccc(NCC5CCOCC5)c([N+](=O)[O-])c4)c(Oc4cnc5[nH]ccc5c4)c3)CC2)=C(c2ccc(Cl)cc2)C1 [Venetoclax] + C[C@@H]1COCCN1C2=NC(=NC(=C2)C3(CC3)[S@](=N)(=O)C)C4=C5C=CNC5=NC=C4 [AZD6738] (first compound max 1 µM, 7x7, partner max 10 µM) | 0.571 | 0.523 | 0.897 | 0.729 | 0.573 |  | 0.881 | 0.407 | 0.454 | 0.336 | 0.725 | 0.759 | 0.791 | 1 | 0.892 | 1 | 0.373 | 0.946 | 1 | 0.785
8 | CN(C)CCCOc1ccc(-c2ccc3ncc4c(c3c2)n(C2CCOCC2)c(=O)n4C)cn1 [AZD0156] + C=CCn1c(=O)c2cnc(Nc3ccc(N4CCN(C)CC4)cc3)nc2n1-c1cccc(C(C)(C)O)n1 [AZD1775] (first compound max 1 µM, partner max 1 µM) | 0.363 | 0.185 | 0.985 | 0.633 | 0.589 |  | 0.376 | 0.336 | 0.443 | 0.331 | 0.781 | 0.769 | 0.661 | 0.989 | 0.618 | 0.881 | 0.777 | 0.962 | 0.945 | 0.556
9 | CC(=O)Nc1cccc(-n2c(=O)n(C3CC3)c(=O)c3c(Nc4ccc(I)cc4F)n(C)c(=O)c(C)c32)c1 [Trametinib] + Cc1nc(-c2cn3c(n2)-c2ccc(-c4cnn(C(C)(C)C(N)=O)c4)cc2OCC3)n(C(C)C)n1 [Taselisib] (first compound max 1 µM, 7x7, partner max 10 µM) | 0.975 | 0.827 | 0.635 | 0.769 | 0.617 |  | 0.666 | 0.583 | 0.997 | 0.969 | 0.523 | 0.966 | 0.532 | 1 | 0.985 | 0.35 | 0.997 | 0.521 | 0.169 | 0.817
10 | CN(C)CCCOc1ccc(-c2ccc3ncc4c(c3c2)n(C2CCOCC2)c(=O)n4C)cn1 [AZD0156] + C[C@@H]1COCCN1C2=NC(=NC(=C2)C3(CC3)[S@](=N)(=O)C)C4=C5C=CNC5=NC=C4 [AZD6738] (first compound max 1 µM, 7x7, partner max 10 µM) | 0.446 | 0.485 | 0.92 | 0.836 | 0.559 |  | 0.595 | 0.257 | 0.457 | 0.242 | 0.848 | 0.724 | 0.938 | 0.998 | 0.868 | 0.943 | 0.358 | 0.975 | 0.907 | 0.652
11 | CCN(CCO)CCCOc1ccc2c(Nc3cc(CC(=O)Nc4cccc(F)c4)[nH]n3)ncnc2c1 [AZD2811] + C=CCn1c(=O)c2cnc(Nc3ccc(N4CCN(C)CC4)cc3)nc2n1-c1cccc(C(C)(C)O)n1 [AZD1775] (first compound max 1 µM, partner max 1 µM) | 0.297 | 0.169 | 0.931 | 0.574 | 0.574 |  | 0.845 | 0.233 | 0.414 | 0.285 | 0.786 | 0.755 | 0.694 | 0.995 | 0.471 | 0.965 | 0.752 | 0.96 | 0.901 | 0.591
12 | C=CCn1c(=O)c2cnc(Nc3ccc(N4CCN(C)CC4)cc3)nc2n1-c1cccc(C(C)(C)O)n1 [AZD1775] + O=C(c1cc(Cc2n[nH]c(=O)c3ccccc23)ccc1F)N1CCN(C(=O)C2CC2)CC1 [Olaparib] (first compound max 1 µM, partner max 10 µM) | 0.394 | 0.225 | 0.964 | 0.717 | 0.574 |  | 0.914 | 0.311 | 0.465 | 0.32 | 0.84 | 0.769 | 0.645 | 0.994 | 0.41 | 0.952 | 0.822 | 0.935 | 0.898 | 0.587
13 | Cc1c2c(nn1C)CSCc1cc(n(C)n1)CSc1cc(c3ccccc3c1)OCCCc1c(C(=O)O)n(C)c3c-2c(Cl)ccc13 [AZD5991] + C[C@@H]1COCCN1C2=NC(=NC(=C2)C3(CC3)[S@](=N)(=O)C)C4=C5C=CNC5=NC=C4 [AZD6738] (first compound max 1 µM, 7x7, partner max 10 µM) | 0.584 | 0.491 | 1 | 0.814 | 0.579 |  | 0.928 | 0.421 | 0.549 | 0.707 | 0.874 | 0.852 | 1 | 1 | 0.928 | 1 | 0.928 | 0.931 | 0.895 | 0.798
14 | Cc1c2c(nn1C)CSCc1cc(n(C)n1)CSc1cc(c3ccccc3c1)OCCCc1c(C(=O)O)n(C)c3c-2c(Cl)ccc13 [AZD5991] + C=CCn1c(=O)c2cnc(Nc3ccc(N4CCN(C)CC4)cc3)nc2n1-c1cccc(C(C)(C)O)n1 [AZD1775] (first compound max 1 µM, partner max 1 µM) | 0.43 | 0.223 | 1 | 0.603 | 0.623 |  | 0.82 | 0.428 | 0.478 | 0.821 | 0.706 | 0.88 | 1 | 0.999 | 0.737 | 0.995 | 0.952 | 0.948 | 0.927 | 0.732
